Data published in BigSolDB 2.1.

CC(=O)N[C@@H](C)C(=O)O
solubility (mole fraction)
Details	283.15 K	288.15 K	293.15 K	298.15 K	303.15 K	308.15 K	313.15 K	318.15 K	323.15 K
in 2-butanone	0.0111	0.0132	0.0161	0.0186	0.0215	0.026	0.03	0.0358	0.0437
in acetone	0.0224	0.028	0.0329	0.0372	0.0446	0.0524	0.0638	0.0819	0.103
in acetonitrile	0.00594	0.00727	0.00871	0.0114	0.0136	0.0177	0.0226	0.0312	0.0385
in dimethyl carbonate	0.00223	0.00261	0.00319	0.00376	0.00449	0.00543	0.00668	0.00841	0.0103
in ethanol	0.111	0.127	0.138	0.156	0.174	0.198	0.217	0.235	0.267
in ethyl acetate	0.00433	0.00521	0.0062	0.00718	0.00806	0.00947	0.0112	0.0131	0.0156
in isobutanol	0.0571	0.063	0.0718	0.0798	0.0916	0.107	0.12	0.132	0.145
in isopentanol	0.0527	0.0563	0.0636	0.0713	0.0823	0.0949	0.108	0.125	0.139
in isopropanol	0.0781	0.0901	0.1	0.113	0.13	0.148	0.162	0.175	0.195
in methyl acetate	0.00578	0.00705	0.00861	0.00997	0.0114	0.0135	0.0162	0.0196	0.0242
in n-butanol	0.0633	0.0707	0.0784	0.0869	0.0982	0.114	0.127	0.143	0.157
in n-butyl acetate	0.00354	0.00382	0.00417	0.00455	0.00504	0.00573	0.00654	0.00771	0.00892
in n-pentanol	0.0516	0.0546	0.0621	0.0695	0.0805	0.0915	0.106	0.12	0.137
in n-propanol	0.0858	0.0937	0.104	0.118	0.133	0.153	0.168	0.186	0.213
in n-propyl acetate	0.003	0.00352	0.00421	0.00495	0.00558	0.00642	0.00755	0.00913	0.0109
in sec-butanol	0.068	0.0759	0.0892	0.101	0.113	0.129	0.144	0.161	0.175
